This is an account of results in paper PMC12641998, “Development of Cell-Permeable Adenylosuccinate Lyase Inhibitor” (Methods and Protocols, 2025).

Entries after “also recorded” stand apart in the source; their conditions may differ.

By Ki is commonly meant a dissociation constant, usually derived from enzyme kinetics or from competition with a known ligand. In general, IC50 refers to the point on the concentration scale where inhibition reaches its midpoint. The EC50 is the concentration at which the effect is half-maximal.

Series [1] concerns the target T1, recombinant human ADSL (Homo sapiens, UniProt P30566).
T1 construct: made in house
T1 sequence (P30566 1-484): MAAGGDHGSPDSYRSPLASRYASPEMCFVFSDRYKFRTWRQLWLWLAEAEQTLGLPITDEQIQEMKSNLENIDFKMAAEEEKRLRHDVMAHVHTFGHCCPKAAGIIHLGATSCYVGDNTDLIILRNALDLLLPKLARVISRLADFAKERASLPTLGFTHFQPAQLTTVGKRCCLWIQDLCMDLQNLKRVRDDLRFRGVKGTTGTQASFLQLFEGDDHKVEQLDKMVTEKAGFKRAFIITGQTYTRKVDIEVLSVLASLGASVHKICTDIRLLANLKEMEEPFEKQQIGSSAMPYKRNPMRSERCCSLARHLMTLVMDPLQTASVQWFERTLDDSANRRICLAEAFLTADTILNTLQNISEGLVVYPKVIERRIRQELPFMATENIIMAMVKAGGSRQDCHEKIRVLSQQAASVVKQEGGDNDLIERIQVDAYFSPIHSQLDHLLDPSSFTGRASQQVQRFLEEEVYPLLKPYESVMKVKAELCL
Description: ADSL enzyme activity assay (A280). It is filed as biochemical. The conditions noted are these: for effect on ADSL in subsequent tests after the screen: follow-up of screening hits. The procedure: ADSL activity assays were performed as described in the literature. In brief, 0.60 mL solution containing recombinant human ADSL (0–2 μM), the test compound, 20 mM HEPES, pH 7.9, 50 mM KCl, 1 mM MgCl2, 1 mM DTT, and 1% DMSO was placed in a semi-micro quartz cuvette. This solution was kept at 37 °C for 30 min. The reaction was initiated by the addition of S-AMP or SAICAR to a final concentration of 0–2 mM (typically 0.20 mM). A280 was monitored every 5 s for 1 h using a Beckman DU650 spectrophotometer.

Series [2] concerns the target T1, recombinant human ADSL. The series can be described thus: Screening of LOPAC 1280 compounds for ADSL inhibitors. It is filed as biochemical. The conditions noted are these: 2 µM compound, 0.2 µM ADSL, 0.2 mM S-AMP. The procedure:
In each well of UV-transparent 384-well plates, a 45 μL solution containing 0.20 μM recombinant human ADSL and 2 μM screening compounds from the LOPAC 1280 library was placed. The reaction buffer contained 20 mM HEPES, pH 7.9, 50 mM KCl, 1 mM MgCl2, 1 mM DTT, and 1% (v/v) DMSO. Following a 30 min-long incubation at ambient temperature, the reaction was initiated by the addition of S-AMP (final: 0.20 mM). The reaction was monitored by measuring A280 every 10 min for 4 h at 37 °C.
To identify ADSL inhibitors, the effects of LOPAC® 1280 library compounds on the activity of recombinant human ADSL were measured (Figure 2A). […] ADSL activity was monitored by measuring changes in A280 for 4 h at 37 °C. Compounds inhibiting ADSL activity by more than three standard deviations (Z-score < −3, Figure 2A) were counted as hits.

A further series has as its system ADSL in HeLa cells. Description: Cellular SAICAR, AICAR, S-AMP and AMP levels by HILIC-HPLC-MS. The conditions noted are these: 12 h, triethylammonium salt form. It counts as cell-based, human. The protocol: Cellular experiments and the measurement of nucleotides were carried out as we previously reported. […] The media were removed, and cells were washed five times with Dulbecco’s phosphate-buffered saline. Cells were lysed in ice-cold extraction solvent (95% methanol with 10 mM triethylammonium bicarbonate). The lysates were transferred to a centrifuge tube. Debris was removed by centrifugation at 150,000× g for 10 min at 4 °C. The supernatant was passed through Amicon Ultracel centrifugal filters (molecular weight cut-off 3 kDa). The filtrates were dried in vacuum and dissolved in 0.10 mL of extraction solvent. A 10 μL portion of this solution was subjected to HILIC-MS as we previously described. To measure cell proliferation, cells were detached by trypsin-EDTA and counted using a Moxi-Z cell counter as we previously described.
Next, we asked whether 1 inhibits ADSL in mammalian cells. […] Cells were lysed, and the amounts of SAICAR and S-AMP were measured by HILIC-HPLC-MS as we previously reported (Figure 6).

Series [3] in a line: Permeability through an in vitro model of blood-brain barrier. The conditions noted are these: Figure S7, n = 3. It is filed as in vitro ADME. From the text: (1 picture or pasted object on this page, not shown here)

On to `O=C(Nc1ccccc1)c1cccc(C(=O)Nc2ccccc2)c1` [Compound 3, N, N’-diphenylisopthalamide], for which, at recombinant human ADSL [1] (concentrations tested up to 30 μM), the “inhibition of ADSL” value is “did not inhibit ADSL”.
On to `N=C(NO)NCCC[C@H](N)C(=O)O` [N^ω-hydroxyl-L-arginine], for which the “effect on ADSL in subsequent tests after the screen” value at recombinant human ADSL [1] was “ADSL became aggregated”. Also, the “screening outcome (hit: Z-score < −3)” value at recombinant human ADSL [2] was “potential ADSL inhibitors”.
In the same order, the values of `CCCCc1oc2ccccc2c1C(=O)c1cc(I)c(OCCN(CC)CC)c(I)c1` [amiodarone] are “did not inhibit ADSL” and “potential ADSL inhibitors”.
For the compound `O=C(Nc1cc(C(=O)Nc2ccc(S(=O)(=O)O)cc2S(=O)(=O)O)cc(C(=O)Nc2ccc(S(=O)(=O)O)cc2S(=O)(=O)O)c1)Nc1cc(C(=O)Nc2ccc(S(=O)(=O)O)cc2S(=O)(=O)O)cc(C(=O)Nc2ccc(S(=O)(=O)O)cc2S(=O)(=O)O)c1` [NF-449], on recombinant human ADSL [1] (Lineweaver-Burk plot), the “mechanism of ADSL inhibition” value is given as “competitive”. In addition, the inhibitory constant (Ki) at recombinant human ADSL [1] (Lineweaver-Burk plot, read-out: Ki, inhibition of ADSL) amounted to 240 nM. Also, the IC50 at recombinant human ADSL [1] (S-AMP as substrate (0.2 mM), read-out: IC50, inhibition of ADSL) is 1400 nM. Also, the “screening outcome (hit: Z-score < −3)” value at recombinant human ADSL [2] is listed as “might be an inhibitor of ADSL”.
Turning to `O=C(Nc1ccccc1S(=O)(=O)O)c1cccc(C(=O)Nc2ccccc2S(=O)(=O)O)c1` [Compound 1, 2,2’-(1,3-phenylenebis(carbonylimino))bisbenzenesulfonate], in the series on ADSL in HeLa cells, the “effect on the cellular level of S-AMP and AMP” value is given as “less effect”; the “increase of cellular level of SAICAR” value is recorded as “approximately 2.5 fold”; the “level of AICAR, lower by” value was “approximately 30%”. For the same compound, in the series on ADSL in HeLa cells (Homo sapiens, read-out: EC50, increase of cellular level of SAICAR), the EC50 was found to be 400 nM. In series [3], the “permeability through blood–brain barrier in vitro” value is given as “limited permeability; also recorded: comparable to the low -permeability standard”.
